Laboratory results published in patent US8952192B2, “Phosphorylated and branched dihydroxy-pentane-dione (DPD) analogs as quorum sensing inhibitors in bacteria” (University of Maryland, College Park, priority 2011, dated 2015).
Entries after “also recorded” stand apart in the source; their conditions may differ. Where two headings read alike, the source gives them in different places.

What was measured:
[1] = tested on: pyocyanin production in P. aeruginosa PAO1; test: QS response (pyocyanin production); assay type: cell-based; conditions: pure culture P. aeruginosa PAO1, DPD analogs (100 μM)
Description: Identifying Modulators of P. aeruginosa QS. DPD analogs (100 μM) were screened for activity in P. aeruginosa PAO1 by monitoring pyocyanin production (FIG. 34b and FIG. 38).
The cells were grown with the analog at 3 mL total volume in 50 mL flasks in LB medium, with continuous shaking. Between 22-24 h, when the cells turned green after pyocyanin secretion, the pigment was extracted. The pyocyanin quantification assay was conducted as described. 2 mL chloroform was added to the 3 mL culture and pipetted up and down. 1 mL of the chloroform was transferred to a separate tube and the pyocyanin was re-extracted into 200 μL of 0.2 M HCl. The absorbance of the solution was measured at OD 520 nm. To calculate the concentration of pyocyanin extracted as μg/mL, the OD at 520 nm was multiplied by 17.07.

S. typhimurium MET708 = test: Tri-species synthetic ecosystem (E. coli, S. typhimurium, P. aeruginosa): AI-2 mediated β-galactosidase production; assay type: cell-based; conditions: tri-species culture, 40 μM analog, no exogenous AI-2, 4 h
Description: (§1) Effect of analogs in a tri-species synthetic ecosystem. […] Isobutyl-DPD (40 μM) and phenyl-DPD (40 μM) were added to a tri-species synthetic ecosystem created by culturing E. coli, S. typhimurium and P. aeruginosa in the same tubes. In order to differentiate and monitor the QS response from each organism, different and orthogonal reporter strains were used; in E. coli, AI-2 mediated dsRED expression, in S. typhimurium, AI-2 mediated β-galactosidase production; and in P. aeruginosa effects of AI-2 were examined for pyocyanin production.
(§2) S. typhimurium MET708, P. aeruginosa PAO1 and E. coli W3110 pCT6 dsRED were each cultured separately overnight in LB medium supplemented with the appropriate antibiotic. P. aeruginosa PAO1, S. typhimurium MET708 and E. coli W3110 pCT6 dsRED were diluted (25 μL:2.5 μL:100 μL) of the overnight culture respectively, into a single 2 mL final volume of fresh LB medium without antibiotics. […] The S. typhimurium lacZ (β-galactosidase) activity was measured after 4 h. The E. coli response was determined after 24 h, by fixing the cells with 1:1 cold 4% paraformaldehyde and using flow cytometric analysis. Samples were analyzed by flow cytometry (FACS Canto II, BD 394 Biosciences), with 30,000 gated events analyzed per sample. […]

E. coli W3110 pCT6 dsRED = test: Tri-species synthetic ecosystem (E. coli, S. typhimurium, P. aeruginosa): AI-2 mediated dsRED expression; assay type: cell-based; conditions: tri-species culture, 40 μM analog, no exogenous AI-2, 24 h
Description: as §1, §2

[2] = tested on: lsr expression in E. coli (lsr-lacZ reporter strains); test: QS response (lsr expression): AI-2 dependent β-galactosidase production, Miller assay; assay type: cell-based, Escherichia coli
Description: The panel of C1-alkyl analogs was screened to identify QS modulators in the enteric bacteria E. coli and S. typhimurium. Transcription of the QS associated lsr operon, by using lsr-lacZ reporter strains (Table 2) which produce β-galactosidase in response to added AI-2 was monitored. In order to first establish if the analogs were agonists or antagonists in the QS circuit, the analogs were incubated with E. coli LW7 pLW11 and S. typhimurium MET715 (FIG. 19a-b) both of which are luxS^−. None of the analogs, except ethyl-DPD behaved as agonists for lsr expression. Previous studies investigating AI-2 antagonism in P. aeruginosa or in S. typhimurium were carried out using chemically synthesized AI-2 added to luxS^− cells. […] The same trends were obtained by adding a 1:1 ratio of enzymatically synthesized AI-2 and DPD analogs to the luxS^− strains E. coli LW7 pLW11 and S. typhimurium MET715 (FIG. 11a-b). None of the tested DPD analogs were bacteriocidal or bacteriostatic as the OD600 values of E. coli ZK126 pLW11 and S. typhimurium MET708 in the presence and absence of the analogs were similar (FIG. 10). Though the QS circuitry of the enteric organisms, E. coli and S. typhimurium are homologous they respond differently to the DPD analogs. The E. coli QS circuitry is susceptible to being silenced by a variety of DPD analogs of different shapes and sizes whereas in S. typhimurium, only a handful of DPD analogs could antagonize the action of AI-2. […] Isobutyl-DPD emerged as an effective and non-species-specific quencher; causing significant lsr expression knockdowns in both E. coli and S. typhimurium.
The QS response indicated by lsr gene expression was analyzed in pure culture studies by culturing E. coli LW7 pLW11, E. coli ZK126 pLW11 and S. typhimurium MET708, S. typhimurium MET715 overnight in LB medium supplemented with appropriate antibiotics as stated previously. These cells were then diluted into fresh LB medium (with antibiotics) and grown to an OD600 of 0.8-1.0 at 30° C., 250 rpm. Cells were then collected by centrifugation at 10,000×g for 10 minutes, and resuspended in 10 mM phosphate buffer. AI-2 (20 μM) and the respective analog (20 μM) were added to the E. coli or S. typhimurium suspension for 2 hours at 37° C. AI-2 dependent β-galactosidase production was quantified by the Miller assay.
The QS response indicated by lsr gene expression was analyzed in pure culture studies by culturing E. coli LW7 pLW11 and S. typhimurium MET715 overnight at 30° C. in LB medium supplemented with appropriate antibiotics as stated previously. These cells were then diluted into fresh LB medium (with antibiotics) and grown to an OD600 of 0.4-0.8 at 37° C., 250 rpm. Cells were then collected by centrifugation at 10,000×g for 10 min and resuspended in 10 mM phosphate buffer. AI-2 (20 μM) and the respective analog (20 μM) were added to the E. coli or S. typhimurium suspension for 2 h at 37° C. AI-2 dependent β-galactosidase production was quantified by the Miller assay.
The QS response indicated by lsr gene expression was analyzed in pure culture studies by culturing E. coli LW7 pLW11, E. coli ZK126 pLW11 and S. typhimurium MET708, S. typhimurium MET715 overnight in LB medium individually supplemented with appropriate antibiotics, as specified above. These cells were diluted into fresh LB medium (with antibiotics) and grown to an OD600 of 0.8-1.0 at 30° C., 250 rpm. Cells were collected by centrifugation at 10,000×g for 10 minutes, and resuspended in 10 mM phosphate buffer. AI-2 (20 μM) and the respective analog (20 μM) were added to the E. coli or S. typhimurium suspension for 2 hours at 37° C. AI-2 dependent β-galactosidase production was quantified by the Miller assay.

P. aeruginosa = test: DPD analogs and representative bacterial species affected (Table 1); assay type: cell-based; parameters: key: x: DPD Analogs and representative bacterial species affected
E. coli = test: as above; assay type: cell-based; parameters: key: x: DPD Analogs and representative bacterial species affected

| SMILES | inhibition of pyocyanin production [1] | QS inhibition in S. typhimurium (β-galactosidase production) (S. typhimurium MET708) | QS inhibition in E. coli (dsRED expression) (E. coli W3110 pCT6 dsRED) | inhibition of AI-2-mediated lsr expression (β-galactosidase), in words ([2]; E. coli LW7 pLW11 (luxS−), 20 μM AI-2 (DPD) + 20 μM analog) | IC50 ([2]; Escherichia coli, read-out: IC50 (lsr expression in E. coli)) | bacterial species affected: P. aeruginosa (P. aeruginosa) | bacterial species affected: E. coli (E. coli) | effect on native lsr expression (QS response) ([2]; E. coli ZK126 pLW11 (luxS+), cells produce their own AI-2) | IC50 (lsr expression in E. coli), in words ([2]; Example 6) | IC50 ([2]; concentration reducing lsr expression (β-galactosidase production) to 50% in the presence of 20 μM exogenously added synthetic DPD, read-out: IC50 of analog (nM) to inhibit QS in E. coli) |
| --- | --- | --- | --- | --- | --- | --- | --- | --- | --- | --- |
| O=C(C(=O)C(O)CO)c1ccccc1 (stereo not shown) [Phenyl-DPD, Phenyl DPD] | some inhibition | largely ineffective | largely ineffective | no | > 40000 nM | x |  |  |  |  |
| CC(C)CC(=O)C(=O)[C@@H](O)CO [Isobutyl-DPD, isobutyl-DPD] | lack of inhibitory effects | inhibit all three species | inhibit all three species |  |  |  | x | significant knocked down; also recorded: potent QS “quencher” | nanomolar range | 54 nM |
